Where a SMILES comes first, the peptide text is derived from it. [ ]: non-standard residue; d: D form. The star is where a group is joined. dPhe(4-NHCONH2) = NC(=O)Nc1ccc(C[C@@H](N)C(=O)O)cc1; Dihydroorotyl(S) = O=C1C[C@@H](C(=O)*)NC(=O)N1; dPhe(4-Cl) = N[C@H](Cc1ccc(Cl)cc1)C(=O)O; Phe(4-NH2) = Nc1ccc(C[C@H](N)C(=O)O)cc1; d2Nal = N[C@H](Cc1ccc2ccccc2c1)C(=O)O; Lys(iPr) = CC(C)NCCCC[C@H](N)C(=O)O; d3Pal = N[C@H](Cc1cccnc1)C(=O)O
Tests used:
[1] = Reconstitution of lyophilised Degarelix with water for injection, swirled by hand (laboratory testing); type: physicochemical
Procedure: The WFI in the syringe is then transferred into the Degarelix vial (I) and the assembly of vial, needle, and syringe is swirled by hand to ensure that the lyophilised Degarelix has completely gone into solution. […] In laboratory testing, the reconstitution times for hand swirled Degarelix solutions comprising 80 mg and 120 mg of lyophilised Degarelix are about 5 minutes and 7 minutes respectively. The slowest reconstitution times are considerably greater, however, and can be up to 15 minutes. To ensure that the Degarelix drug product has been fully reconstituted, the care-provider is required to swirl the assembly, by hand, for a period of up to 15 minutes. To assess whether the drug has been reconstituted, the care-provider periodically checks the vial to determine whether the solution is completely clear or not.

[2] = Reconstitution of lyophilised Degarelix with water for injection using an automatic swirling machine (laboratory tests); type: physicochemical; settings: tested for the 80 mg and 120 mg doses
Procedure: For example, laboratory tests have shown that average reconstitution times when an automatic swirling machine is used are in the region of 0.8 minutes and the slowest times for reconstitution are in the region of 1.25 to 1.5 minutes (tested for the 80 mg and 120 mg doses). This compares well with the present system of swirling by hand, where the slowest times for reconstitution are near to 15 minutes. An automatic mixing apparatus may enable a reconstitution protocol to be formulated in which the Degarelix and WFI are mixed for a relatively short period of time, after which the Degarelix should in the vast majority of cases have gone into solution, as compared with mixing by hand. It is contemplated that the care-provider may check the clarity of the solution after it has been reconstituted with the automatic mixing apparatus and, if fully reconstituted, administer the solution to the patient.

[3] = system: testosterone; settings: used in a clinical preparation; cited from earlier work

Question: With `CC(=O)N[C@H](Cc1ccc2ccccc2c1)C(=O)N[C@H](Cc1ccc(Cl)cc1)C(=O)N[C@H](Cc1cccnc1)C(=O)N[C@@H](CO)C(=O)N[C@@H](Cc1ccc(NC(=O)[C@@H]2CC(=O)NC(=O)N2)cc1)C(=O)N[C@H](Cc1ccc(NC(N)=O)cc1)C(=O)N[C@@H](CC(C)C)C(=O)N[C@@H](CCCCNC(C)C)C(=O)N1CCC[C@H]1C(=O)N[C@H](C)C(N)=O` [Degarelix] (Ac-[d2Nal][dPhe(4-Cl)][d3Pal]S[Phe(4-NH2)](Dihydroorotyl(S))[dPhe(4-NHCONH2)]L[Lys(iPr)]P[dA]-NH2) as the compound, how does the reconstitution time ([1]; 80 mg of lyophilised Degarelix) read?
Answer: about 5 minutes

Question: And the reconstitution time ([1]; 120 mg of lyophilised Degarelix)?
Answer: ~7 min

Question: And the average reconstitution time [2]?
Answer: ~0.8 min

Question: And the levels of testosterone [3]?
Answer: reduction in levels of testosterone
